Like-named read-outs stand apart in the source and are kept apart here.

The nature of data set [1]: Hygroscopicity (deliquescence) test. The format is physicochemical. Particulars: for Moisture content/g-sample: 25° C. As to the method: A dried bittern powder was prepared by drying bittern solution in vacuo at 60° C. for 15 hours, pulverized, and dried in a usual manner for use as a control. The moisture content (weight of moisture per one gram of the sample) of each sample was measured by conventional drying loss method. […] The weight of the content in each cup was measured at the initiation of preservation (0 day preservation), and 1, 2, 4, and 7 days after the initiation. The amount of moisture per one gram of each at sample after 1 to 7 days preservation was calculated based on the assumption that the increased amount measured to that of 0 day preservation was the amount of moisture absorbed by each sample.

A short description of data set [2]: Change of solubility of metal ion compounds by the association with trehalose (precipitation of crystal). The format is physicochemical. As for the experimental part: The changes of solubility in water of trehalose and/or metal ion compounds were examined under coexistence of trehalose and metal ion compounds. […] Solutions prepared by dissolving the same amount of trehalose only or that of metal ion compounds only were prepared as controls. After dissolving the contents completely, all the beakers were allowed to stand at room temperature (25° C.) for 24 hours. Successively, precipitation of crystals was judged by macroscopic observation. In the case of precipitating crystals, the formed crystals were collected and analyzed for those component(s) by conventional method.

Data set [3] is described as follows: Suppressing effect on the oxidation of ferrous ion (Nitroso-DMAP method). The format is physicochemical. The conditions noted are these: for Amount of Fe2+ ion (mg/ml) After light-irradiation: 37° C. four hours, light of about 9,000 luxes, 5% (w/v) saccharide; for Amount of Fe2+ ion (mg/ml) Before light-irradiation: ferrous chloride 1% (w/v) as ferrous ion + 5% (w/v) saccharide. As to the method:
Generally, ferrous ion (divalent, Fe^2+) and ferric ion (trivalent, Fe^3+) are known as ions of iron element. Ferrous ion is easily oxidized with light or heat and converted to ferric ion. Effects of trehalose and maltitol on the phenomenon were investigated as follows. An aqueous solution, comprising ferrous chloride (FeCl2) tetrahydrate corresponding to the amount of 1% (w/v) as ferrous ion, and comprising trehalose or maltitol corresponding to the amount of 5% (w/v), d.s.b., was prepared as a test solution. While, a solution, comprising ferrous chloride only with the same concentration to the test solution, was prepared as a control solution. After preparing the test and control solutions, small portions of which were sampled respectively, and the amount of ferrous ion was measured by the Nitroso-DMAP method described later. Successively, 10 ml each of the test and control solution was placed separately in a 20 ml-vial and sealed. After preserving these vials at 37° C. for four hours with irradiating a light of about 9,000 luxes, the amount of ferrous ion in each solution was measured by the Nitroso-DMAP method. Measurement by the Nitroso-DMAP method was carried out as follows. After diluting the test or control solution accurately by 100-fold, 0.5 ml of the dilute was placed in a 50 ml-volumetric flask. […] After the above procedure, the absorbance at 750 nm (within the visible light range) of the solution was measured. The standard solutions, prepared by diluting stepwise a ferrous chloride solution with known concentration, were used for the measurement in the same manner to obtain a standard curve for quantitative analysis. The amount of ferrous ion of the test or the control solution was determined with the standard curve.

Data set [4] can be described thus: Suppressing effect on the deterioration of ascorbic acid under the presence of metal ion (degree of coloring). The format is physicochemical. The conditions noted are these: 50° C.; for Degree of coloring (Abs. at 420 nm) Preserved for 96 hrs: 14.8 mM AsA + 10 mM FeCl2 + 100 mM saccharide. As for the experimental part:
L-Ascorbic acid deteriorates rapidly by the oxidative degradation in the presence of iron and copper ions and causes the browning. The effects of trehalose and maltitol on the phenomenon were investigated as follows. Ten kinds of aqueous solutions having respective compositions described in Table 12 were prepared. Aqueous solutions of L-ascorbic acid alone or L-ascorbic acid and metal ion compounds were used as controls. The test solutions were prepared by adding trehalose or maltitol to the control solutions. Ten milliliters of each of these test and control solutions were placed into different 20 ml-vials and sealed. The vials were preserved at 50° C. The control and test solutions, containing ferrous chloride, and those containing ferric chloride or copper sulfate were preserved for 96 hours and 40 hours, respectively. After the preservation, the degree of coloring of each solution was measured. In the case of a control solution containing L-ascorbic acid alone, the degrees of coloring were measured at the preservation periods of 40 hours and 96 hours. The absorbance at 420 nm (within the visible light range) of each sample was measured as the degree of coloring.

The conditions of data set [5]: pH 3.5. As for the experimental part:
Effects of trehalose, maltitol, and other saccharides on the solubilities of calcium-organic acid salts were investigated as follows. […] Successively, five grams of commercially available calcium DL-lactate pentahydrate or calcium gluconate monohydrate, used as calcium-organic acid salts, were added to each saccharide solution, followed by suspension. Thereafter, the pH of each solution was adjusted to 3.5, and the solution was filled up to give a volume of 50 ml with deionized water. After stirring at 25° C. for 16 hours, insoluble calcium-organic acid salts were removed by centrifuging (15,000 rpm for 30 minutes). The pHs of the resulting supernatants were measured. The calcium concentrations of the supernatant were measured using an atomic adsorption photometer described in Experiment 5. The solution prepared with no saccharide was also measured for calcium concentration in the same manner as control.

The mark [6] stands for this setting: 0.1 mole metal ion compound only, 30 grams of water, 25° C. 24 hours.
Where [7] appears, read: 14.8 mM AsA + 10 mM CuSO4 + 100 mM saccharide.
[8] abbreviates: 14.8 mM AsA + 10 mM FeCl3 + 100 mM saccharide.

`O.O.[Ca+2].[Cl-].[Cl-]` [CaCl2 · 2H2O, calcium chloride dihydrate]: the “moisture content (weight of moisture per one gram of the sample)” value in data set [1] (before preservation, drying loss method) amounted to 0.245 g. Further, the “Moisture content/g-sample” value came out at 0.245 g in data set [1] (relative humidity 33.0%, 0 day); 0.289 g in data set [1] (relative humidity 33.0%, 1 day); 0.312 g in data set [1] (relative humidity 33.0%, 2 days); 0.343 g in data set [1] (relative humidity 33.0%, 3 days); 0.364 g in data set [1] (relative humidity 33.0%, 7 days); 0.245 g in data set [1] (relative humidity 52.8%, 0 day). The “Moisture content/g-sample” value in data set [1] (relative humidity 52.8%, 1 day) was 0.319 g; in data set [1] (relative humidity 52.8%, 2 days), 0.359 g; in data set [1] (relative humidity 52.8%, 3 days) it was 0.405 g; in data set [1] (relative humidity 52.8%, 7 days) it was 0.430 g.

As for `[Cl][Cu]` [Cuprous chloride, cuprous chloride dihydrate], the “Precipitation of crystal In the absence of trehalose” value in data set [2] (setting [6]) is listed as “Precipitated”.

Turning to `O.O.O.O.[Cl][Fe][Cl]` [Ferrous chloride, ferrous chloride tetrahydrate], in data set [2] (setting [6]), the “Precipitation of crystal In the absence of trehalose” value is “Precipitated”.

For the compound `OC[C@@H](O)[C@@H](O[C@H]1O[C@H](CO)[C@@H](O)[C@H](O)[C@H]1O)[C@H](O)[C@@H](O)CO` [Maltitol, maltitol], in data set [3], the “Amount of Fe2+ ion (mg/ml) After light-irradiation” value was found to be 4.3 mg/mL and the “Amount of Fe2+ ion (mg/ml) Before light-irradiation” value was 10.2 mg/mL. Further, the “Degree of coloring (Abs. at 420 nm) Preserved for 40 hrs” value (“Degree of coloring … for 40 hrs” below) in data set [4] (setting [7]) was found to be 0.258. Also, the “Degree of coloring (Abs. at 420 nm) Preserved for 96 hrs” value in data set [4] came to 0.291. Moreover, the “Degree of coloring … for 40 hrs” value in data set [4] (setting [8]) came to 0.198. Further, in data set [5], the “Relative conc. (%), Calcium gluconate” value amounted to 128%; the “Relative conc. (%), Calcium lactate” value is recorded as 123%; the “increase of calcium concentration in the supernatant in comparison with control, calcium gluconate” value is reported as 28%; the “increase of calcium concentration in the supernatant in comparison with control, calcium lactate” value turned out to be 23%.

Regarding `O.O.O.O.[Cl][Mn][Cl]` [Manganese chloride, manganese chloride tetrahydrate], the “Precipitation of crystal In the presence of trehalose” value in data set [2] (0.1 mole metal ion compound + 0.1 mole trehalose, 30 grams of water, room temperature (25° C.) 24 hours, macroscopic observation) is reported as “None”. Also, the “Precipitation of crystal In the absence of trehalose” value in data set [2] (setting [6]) is listed as “Precipitated”.

As to `O.O.O.O.O.O.[Cl][Ni][Cl]` [Nickel chloride, nickel chloride hexahydrate], in data set [2], the “Precipitation of crystal In the absence of trehalose” value was “Precipitated” and the “Precipitation of crystal In the presence of trehalose” value is given as “None”.

Consider `OC[C@H]1O[C@H](O[C@H]2O[C@H](CO)[C@@H](O)[C@H](O)[C@H]2O)[C@H](O)[C@@H](O)[C@@H]1O` [Trehalose, α,α-trehalose], for which, in data set [3], the “Amount of Fe2+ ion (mg/ml) After light-irradiation” value stood at 4.4 mg/mL and the “Amount of Fe2+ ion (mg/ml) Before light-irradiation” value came out at 10.1 mg/mL. Moreover, the “Degree of coloring … for 40 hrs” value in data set [4] (setting [7]) is given as 0.311. In data set [4], the “Degree of coloring (Abs. at 420 nm) Preserved for 96 hrs” value worked out at 0.380. Besides, the “Degree of coloring … for 40 hrs” value in data set [4] (setting [8]) was 0.226. For the same compound, in data set [5] (16 h, 100 mg/ml), the “Relative conc. (%), Calcium gluconate” value is 112%; the “Relative conc. (%), Calcium lactate” value was 129%; the “increase of calcium concentration in the supernatant in comparison with control, calcium gluconate” value came out at 12%; the “increase of calcium concentration in the supernatant in comparison with control, calcium lactate” value is listed as 29%.
